Source: patent US20200022963A1, “PHARMACEUTICAL COMPOSITION COMPRISING BETAHISTINE” (Otolanum AG, priority 2017, published 2020)

Assay: Pharmacokinetic profile after single oral, intranasal and intravenous betahistine in beagle dogs, Example 5
Format: in vivo
Details: beagle, dog, in vivo; for concentration at 6 h / concentration at 24 h / concentration at 0 h / concentration at 5 min / concentration at 0.167 h / concentration at 0.333 h / concentration at 0.5 h / concentration at 1 h / concentration at 2 h / concentration at 3 h: Betahistine Plasma Concentration
Description: In this study, the pharmacokinetic profile of betahistine was evaluated after a single dose administration of betahistine in male and female beagle dogs (age 5-7 months; weight of 5-11 kg, within a range of 3 kg for each sex) for three routes of administration: oral, intranasal, and intravenous.
On Day 1 of the study, betahistine (BH) was delivered orally at a dose of 12 mg/kg, 24 mg/kg, or 48 mg/kg. Each treatment group comprised 8 animals (4 males and 4 females). For pharmacokinetic assessment, plasma samples were collected prior to dosing, and then at 5, 10, 20 and 30 min, 1, 2, 3, 6, 24 hours after dosing.
On Day 8 of the study, the animals that received oral BH at a dose of 12 mg/kg were administered the test betahistine composition intranasally at a dose of 40 mg betahistine dihydrochloride; the animals that received oral BH at a dose of 24 mg/kg were administered the test betahistine composition intranasally at a dose of 80 mg betahistine dihydrochloride; and the animals that received oral BH at a dose of 48 mg/kg were administered the test betahistine composition intranasally at a dose of 120 mg betahistine dihydrochloride. The test betahistine composition was delivered intranasally in a single dose via an Aptar nasal spray pump device at a total dose level of 40, 80 and 120 mg of betahistine dihydrochloride. Plasma samples were collected prior to dosing, and then at 5, 10, 20 and 30 min, 1, 2, 3, 6, 24 hours after dosing.
On Day 15 of the study, the animals that received oral BH at a dose of 12 mg/kg and the test betahistine composition intranasally at a dose of 40 mg betahistine dihydrochloride were administered a bolus intravenous injection of betahistine at a dose of 0.44 mg/kg. Plasma samples were collected prior to dosing, and then at 5, 10, 20 and 30 min, 1, 2, 3, 6, 24 hours after dosing.
Betahistine 13CD3 dihydrochloride and 2-pyridylacetic acid-D4 hydrochloride were used as respective internal standards. The calibration range for betahistine was 0.05-250 ng/mL and for 2-PAA 2.00-3000 ng/mL using a plasma sample volume of 0.50 mL.
For determination of betahistine, the method involved liquid-liquid extraction, for 2-PAA, the method involved protein precipitation. Plasma samples were prepared for betahistine by extraction under basic conditions with an organic solvent, then the organic phase was dried, reconstituted and transferred for LC/MS-MS analysis. […] Sample analysis was performed using reversed phase chromatography.

[1] = male, inhaled or intranasal, 5 mg/kg
[2] = male, inhaled or intranasal, 9.8 mg/kg
[3] = male, inhaled or intranasal, 15.8 mg/kg

## CNCCc1ccccn1 [betahistine]
female, po, 24 mg/kg
  concentration at 6 h: 0.342 ng/mL
  concentration at 24 h: 0 ng/mL
female, po, 48 mg/kg
  AUC(0-6)/D: 1.61 ± 0.528 hr*ng/mL/(mg/kg)
  AUC(0-inf): 69.2 ± 23.3 ng·h/mL
  Cmax: 33.5 ± 9.11 ng/mL
  Cmax/D: 0.697 ± 0.190 ng/mL/(mg/kg)
  Oral AUC/dose: 1.61 (h · ng/mL)/(mg/kg)
  Tmax: 60 min
  half-life: 35.9 min
  concentration at 0 h: 0 ng/mL
  concentration at 5 min: 9.87 ng/mL
  concentration at 0.167 h: 9.24 ng/mL
  concentration at 0.333 h: 11.5 ng/mL
  concentration at 0.5 h: 19.4 ng/mL
  concentration at 1 h: 32.8 ng/mL
  concentration at 2 h: 21.3 ng/mL
  concentration at 3 h: 10.1 ng/mL
  concentration at 6 h: 0.64 ng/mL
  concentration at 24 h: 0 ng/mL
female, po, 48 mg/kg, AUC(0-6)
  AUC(0-t): 77.5 ± 25.4 ng·h/mL
female, po, 48 mg/kg, AUC(0-t)
  AUC(0-t): 77.5 ± 25.4 ng·h/mL
[1]
  AUC(0-inf): 131 ng·h/mL
  AUC(0-t)/D: 36.4 ± 24.4 hr*ng/mL/(mg/kg)
  Cmax: 598 ng/mL
  Cmax/D: 120 ± 90.1 ng/mL/(mg/kg)
  Intranasal AUC/dose: 36.4 (h · ng/mL)/(mg/kg)
  Tmax: 10.2 min
male, inhaled or intranasal, 5 mg/kg, AUC(0-6)
  AUC(0-t): 178 ± 122 ng·h/mL
male, inhaled or intranasal, 5 mg/kg, AUC(0-t)
  AUC(0-t): 182 ± 122 ng·h/mL
[2]
  AUC(0-inf): 202 ± 156 ng·h/mL
  AUC(0-t)/D: 17.5 ± 14.3 hr*ng/mL/(mg/kg)
  Cmax: 735 ng/mL
  Cmax/D: 75.0 ± 56.9 ng/mL/(mg/kg)
  Intranasal AUC/dose: 17.5 (h · ng/mL)/(mg/kg)
  Tmax: 7.8 min
male, inhaled or intranasal, 9.8 mg/kg, AUC(0-6)
  AUC(0-t): 168 ± 140 ng·h/mL
male, inhaled or intranasal, 9.8 mg/kg, AUC(0-t)
  AUC(0-t): 172 ± 140 ng·h/mL
[3]
  AUC(0-t)/D: 12.6 ± 4.97 hr*ng/mL/(mg/kg)
  Cmax: 765 ng/mL
  Cmax/D: 48.4 ± 23.7 ng/mL/(mg/kg)
  Intranasal AUC/dose: 12.6 (h · ng/mL)/(mg/kg)
  Tmax: 7.8 min
male, inhaled or intranasal, 15.8 mg/kg, AUC(0-6)
  AUC(0-t): 194 ± 79.8 ng·h/mL
male, inhaled or intranasal, 15.8 mg/kg, AUC(0-t)
  AUC(0-t): 199 ± 78.5 ng·h/mL
male, iv, 0.44 mg/kg
  AUC(0-inf): 18.4 ng·h/mL
  AUC(0-t)/D: 44.3 ± 11.5 hr*ng/mL/(mg/kg)
  Cmax: 58.2 ng/mL
  Cmax/D: 132 ng/mL/(mg/kg)
  Tmax: 4.8 min
  Vd: 32.1 L/kg
  clearance: 398 mL/min/kg
  half-life: 55.8 min
  concentration at 0 h: 0.11 ng/mL
  concentration at 5 min: 58.2 ng/mL
  concentration at 0.167 h: 29.1 ng/mL
  concentration at 0.333 h: 8.06 ng/mL
  concentration at 0.5 h: 5.57 ng/mL
  concentration at 1 h: 0.349 ng/mL
  concentration at 2 h: 0.993 ng/mL
  concentration at 3 h: 0.081 ng/mL
  concentration at 6 h: 1.05 ng/mL
  concentration at 24 h: 0 ng/mL
male, iv, 0.44 mg/kg, AUC(0-6)
  AUC(0-t): 19.5 ng·h/mL
male, iv, 0.44 mg/kg, AUC(0-t)
  AUC(0-t): 19.5 ng·h/mL
male, po, 12 mg/kg
  AUC(0-6)/D: 1.04 ± 0.168 hr*ng/mL/(mg/kg)
  AUC(0-inf): 13.3 ng·h/mL
  Cmax: 18.9 ± 9.99 ng/mL
  Cmax/D: 1.58 ± 0.833 ng/mL/(mg/kg)
  Oral AUC/dose: 1.04 (h · ng/mL)/(mg/kg)
  Tmax: 30 min
  half-life: 18.8 min
  concentration at 0 h: 0 ng/mL
  concentration at 5 min: 1.35 ng/mL
  concentration at 0.167 h: 2.73 ng/mL
  concentration at 0.333 h: 5.8 ng/mL
  concentration at 0.5 h: 18.9 ng/mL
  concentration at 1 h: 5.65 ng/mL
  concentration at 2 h: 0.457 ng/mL
  concentration at 3 h: 0.036 ng/mL
  concentration at 6 h: 0.016 ng/mL
  concentration at 24 h: 0.021 ng/mL
male, po, 12 mg/kg, AUC(0-6)
  AUC(0-t): 13 ± 2.23 ng·h/mL
male, po, 12 mg/kg, AUC(0-t)
  AUC(0-t): 12.5 ± 2.02 ng·h/mL
male, po, 24 mg/kg
  AUC(0-6)/D: 1.44 ± 0.714 hr*ng/mL/(mg/kg)
  AUC(0-inf): 34.6 ± 17.1 ng·h/mL
  Cmax: 38.3 ± 28.1 ng/mL
  Cmax/D: 1.60 ± 1.17 ng/mL/(mg/kg)
  Oral AUC/dose: 1.44 (h · ng/mL)/(mg/kg)
  Tmax: 60 min
  half-life: 47.1 min
  concentration at 0 h: 0 ng/mL
  concentration at 5 min: 4.69 ng/mL
  concentration at 0.167 h: 5.05 ng/mL
  concentration at 0.333 h: 23.9 ng/mL
  concentration at 0.5 h: 17.8 ng/mL
  concentration at 1 h: 26.9 ng/mL
  concentration at 2 h: 2.08 ng/mL
  concentration at 3 h: 0.611 ng/mL
  concentration at 6 h: 0.078 ng/mL
  concentration at 24 h: 0 ng/mL
male, po, 24 mg/kg, AUC(0-6)
  AUC(0-t): 34.5 ± 17.2 ng·h/mL
male, po, 24 mg/kg, AUC(0-t)
  AUC(0-t): 34.5 ± 17.1 ng·h/mL
male, po, 48 mg/kg
  AUC(0-6)/D: 2.73 ± 0.590 hr*ng/mL/(mg/kg)
  AUC(0-inf): 133 ng·h/mL
  Cmax/D: 2.13 ± 0.628 ng/mL/(mg/kg)
  Oral AUC/dose: 2.73 (h · ng/mL)/(mg/kg)
  Tmax: 60 min
  half-life: 31.3 min
  concentration at 0 h: 0 ng/mL
  concentration at 5 min: 14.3 ng/mL
  concentration at 0.167 h: 35.7 ng/mL
  concentration at 0.333 h: 14.3 ng/mL
  concentration at 0.5 h: 33.7 ng/mL
  concentration at 1 h: 80.2 ng/mL
  concentration at 2 h: 21.7 ng/mL
  concentration at 3 h: 3 ng/mL
  concentration at 6 h: 0.238 ng/mL
  concentration at 24 h: 0 ng/mL
male, po, 48 mg/kg, AUC(0-6)
  AUC(0-t): 131 ± 28.3 ng·h/mL
male, po, 48 mg/kg, AUC(0-t)
  AUC(0-t): 131 ± 28.3 ng·h/mL
